Reference: patent US7060822B1, “2-pyrazolin-5-ones” (Abbott GmbH & Co. KG, priority 1999, dated 2006)

Row | Structure (SMILES) | melting point
1 | Cc1[nH]c(C=C2C(=O)NN=C2c2cnccn2)c(C)c1C(=O)CN(C)C.Cl | > 300 °C (dec.)
2 | O=C1NN=C(c2cccnc2)C1=Cc1c[nH]c2ccccc12 | 305 to 307 °C
3 | O=C1NN=C(c2cccnc2)C1=Cc1cc2ccccc2[nH]1 | 155 to 157 °C
4 | O=C1NN=C(c2cccnc2)C1=Cc1c[nH]c2ncccc12 | 212 to 215 °C
5 | Cc1cc(C)c(C=C2C(=O)NN=C2c2cccnc2)[nH]1 | 235 to 238 °C
6 | Cc1ccc(C=C2C(=O)NN=C2c2cccnc2)[nH]1 | 210 to 212 °C
7 | O=C1NN=C([C@@H]2C[C@H]2c2ccccc2)C1=Cc1ccc[nH]1 (relative stereo) [Example 106, 3-(trans-2-phenylcyclopropyl)-4-[(pyrrol-2-yl)methylene]-2-pyrazolin-5-one] | 173 to 175 °C
8 | O=C1NN=C([C@@H]2C[C@H]2c2ccccc2)C1=Cc1c[nH]c2ccccc12 (relative stereo) [Example 285, 4-[(Indol-3-yl)methylene]-3-(trans-2-phenyl-1-cyclopropyl)-2-pyrazolin-5-one] | 280 to 282 °C
9 | Cc1cc(C=C2C(=O)NN=C2C2CC2)[nH]c1C [Example 1, 3-Cyclopropyl-4-[(4,5-dimethylpyrrol-2-yl)methylene]-2-pyrazolin-5-one] | 220 to 222 °C
10 | O=C1NN=C(Cc2ccccc2)C1=Cc1ccc[nH]1 [Example 2, 3-Benzyl-4-[(pyrrol-2-yl)methylene]-2-pyrazolin-5-one] | 182 to 184 °C
11 | COc1ccc(OCC2=NNC(=O)C2=Cc2ccc[nH]2)cc1 [Example 3, 3-(4-Methoxyphenyloxymethyl)-4-[(pyrrol-2-yl)methylene]-2-pyrazolin-5-one] | 177 to 180 °C
12 | O=C1NN=C(COc2ccccc2)C1=Cc1ccc[nH]1 [Example 4, 3-Phenyloxymethyl-4-[(pyrrol-2-yl)methylene]-2-pyrazolin-5-one] | 163 to 165 °C
13 | O=C1NN=C(COc2ccc(Cl)cc2)C1=Cc1ccc[nH]1 [Example 5, 3-(4-Chlorophenyloxymethyl)-4-[(pyrrol-2-yl)methylene]-2-pyrazolin-5-one] | 218 to 222 °C
14 | COc1ccc(CC2=NNC(=O)C2=Cc2ccc[nH]2)cc1 [Example 6, 3-(4-Methoxybenzyl)-4-[(pyrrol-2-yl)methylene]-2-pyrazolin-5-one] | 179 to 180 °C
15 | Cc1c(CCC(=O)O)c[nH]c1C=C1C(=O)NN=C1Cc1ccccc1 [Example 7, 3-Benzyl-4-{[4-(2-carboxyethyl)-3-methylpyrrol-2-yl]methylene}-2-pyrazolin-5-one] | 270 to 272 °C
16 | Cc1c[nH]c(C=C2C(=O)NN=C2Cc2ccccc2)c1CCC(=O)O [Example 8, 3-Benzyl-4-{[3-(2-carboxyethyl)-4-methylpyrrol-2-yl]methylene}-2-pyrazolin-5-one] | 226 to 228 °C
17 | Cc1ccc(OCC2=NNC(=O)C2=Cc2ccc[nH]2)cc1 [Example 9, 3-(4-Methylphenyloxymethyl)-4-[(pyrrol-2-yl)methylene]-2-pyrazolin-5-one] | 207 to 210 °C
18 | CC(C)OC1=NNC(=O)C1=Cc1ccc[nH]1 [Example 11, 3-Isopropoxy-4-[(pyrrol-2-yl)methylene]-2-pyrazolin-5-one] | 172 to 174 °C
19 | O=C1NN=C(CCc2ccccc2)C1=Cc1ccc[nH]1 [Example 12, 3-Phenylethyl-4-[(pyrrol-2-yl)methylene]-2-pyrazolin-5-one] | 145 to 147 °C
20 | O=C1NN=C(Nc2ccccc2)C1=Cc1ccc[nH]1 [Example 13, 3-Phenylamino-4-[(pyrrol-2-yl)methylene]-2-pyrazolin-5-one] | 285 to 287 °C
21 | Cc1ccc(CC2=NNC(=O)C2=Cc2ccc[nH]2)cc1 [Example 14, 3-(4-Methylbenzyl)-4-[(pyrrol-2-yl)methylene]-2-pyrazolin-5-one] | 254 to 255 °C
22 | Cc1ccc(NC2=NNC(=O)C2=Cc2ccc[nH]2)cc1 [Example 15, 3-(4-Methylphenylamino)-4-[(pyrrol-2-yl)methylene]-2-pyrazolin-5-one] | 256 to 258 °C
23 | COc1ccc(NC2=NNC(=O)C2=Cc2ccc[nH]2)cc1 [Example 16, 3-(4-Methoxyphenylamino)-4-[(pyrrol-2-yl)methylene]-2-pyrazolin-5-one] | 288 to 290 °C
24 | O=C1NN=C(Cc2ccc(Cl)cc2)C1=Cc1ccc[nH]1 [Example 17, 3-(4-Chlorobenzyl)-4-[(pyrrol-2-yl)methylene]-2-pyrazolin-5-one] | 178 to 180 °C
25 | O=C1NN=C(Nc2ccc(Cl)cc2)C1=Cc1ccc[nH]1 [Example 18, 3-(4-Chlorophenylamino)-4-[(pyrrol-2-yl)methylene]-2-pyrazolin-5-one] | 245 to 247 °C

Row | Structure (SMILES) | melting point
26 | O=C1NN=C(COc2cccc(Cl)c2)C1=Cc1ccc[nH]1 [Example 19, 3-(3-Chlorophenyloxymethyl)-4-[(pyrrol-2-yl)methylene]-2-pyrazolin-5-one] | 165 to 167 °C
27 | O=C1NN=C(c2c[nH]c3ccccc23)C1=Cc1ccc[nH]1 [Example 20, 3-(Indol-3-yl)-4-[(pyrrol-2-yl)methylene]-2-pyrazolin-5-one] | 300 to 305 °C
28 | COc1cccc(CC2=NNC(=O)C2=Cc2ccc[nH]2)c1 [Example 21, 3-(3-Methoxybenzyl)-4-[(pyrrol-2-yl)methylene]-2-pyrazolin-5-one] | 169 to 171 °C
29 | COc1ccc(CC2=NNC(=O)C2=Cc2ccc[nH]2)cc1OC [Example 22, 3-(3,4-Dimethoxybenzyl)-4-[(pyrrol-2-yl)methylene]-2-pyrazolin-5-one] | 164 to 165 °C
30 | COc1ccc(CCC2=NNC(=O)C2=Cc2ccc[nH]2)cc1 [Example 23, 3-(4-Methoxyphenylethyl)-4-[(pyrrol-2-yl)methylene]-2-pyrazolin-5-one] | 137 to 139 °C
31 | O=C1NN=C(COc2ccc(-c3ccccc3)cc2)C1=Cc1ccc[nH]1 [Example 24, 3-(4-Phenylphenyloxymethyl)-4-[(pyrrol-2-yl)methylene]-2-pyrazolin-5-one] | 192 to 194 °C
32 | CC(CC1=NNC(=O)C1=Cc1ccc[nH]1)c1ccccc1 (centres unmarked) [Example 25, 3-(2-Phenylpropyl)-4-[(pyrrol-2-yl)methylene]-2-pyrazolin-5-one] | 130 to 131 °C
33 | O=C1NN=C(CCCc2ccccc2)C1=Cc1ccc[nH]1 [Example 26, 3-(3-Phenylpropyl)-4-[(pyrrol-2-yl)methylene]-2-pyrazolin-5-one] | 169 to 170 °C
34 | O=C1NN=C(CCc2ccc(O)cc2)C1=Cc1ccc[nH]1 [Example 27, 3-(4-Hydroxyphenylethyl)-4-[(pyrrol-2-yl)methylene]-2-pyrazolin-5-one] | 253 to 255 °C
35 | Cc1cc(C)c(C=C2C(=O)NN=C2CCc2ccccc2)[nH]1 [Example 28, 4-[(3,5-Dimethylpyrrol-2-yl)methylene]-3-phenylethyl-2-pyrazolin-5-one] | 186 to 187 °C
36 | Cc1ccc(CCC2=NNC(=O)C2=Cc2ccc[nH]2)cc1 [Example 29, 3-(4-Methylphenylethyl)-4-[(pyrrol-2-yl)methylene]-2-pyrazolin-5-one] | 153 to 154 °C
37 | Cc1cc(C)c(C=C2C(=O)NN=C2OC(C)C)[nH]1 [Example 30, 4-[(3,5-Dimethylpyrrol-2-yl)methylene]-3-isopropoxy-2-pyrazolin-5-one] | 176 to 177 °C
38 | CCOC1=NNC(=O)C1=Cc1ccc[nH]1 [Example 31, 3-Ethoxy-4-[(pyrrol-2-yl)methylene]-2-pyrazolin-5-one] | 211 to 213 °C
39 | O=C1NN=C(CCc2ccc([N+](=O)[O-])cc2)C1=Cc1ccc[nH]1 [Example 32, 3-(4-Nitrophenylethyl)-4-[(pyrrol-2-yl)methylene]-2-pyrazolin-5-one] | 224 to 226 °C
40 | O=C1NN=C(Nc2ccc(F)cc2)C1=Cc1ccc[nH]1 [Example 33, 3-(4-Fluorophenylamino)-4-[(pyrrol-2-yl)methylene]-2-pyrazolin-5-one] | 272 to 273 °C
41 | O=C1NN=C(CCc2ccc(Cl)cc2)C1=Cc1ccc[nH]1 [Example 34, 3-(4-Chlorophenylethyl)-4-[(pyrrol-2-yl)methylene]-2-pyrazolin-5-one] | 193 to 194 °C
42 | Cc1cc(C=C2C(=O)NN=C2OC(C)C)[nH]c1C [Example 35, 4-[(4,5-Dimethylpyrrol-2-yl)methylene]-3-isopropoxy-2-pyrazolin-5-one] | 195 to 197 °C
43 | CCc1c(C)[nH]c(C=C2C(=O)NN=C2OC(C)C)c1C [Example 36, 4-[(3,5-Dimethyl-4-ethylpyrrol-2-yl)methylene]-3-isopropoxy-2-pyrazolin-5-one] | 188 to 190 °C
44 | CCc1c(C)[nH]c(C=C2C(=O)NN=C2CCc2ccccc2)c1C [Example 37, 4-[(3,5-Dimethyl-4-ethylpyrrol-2-yl)methylene]-3-phenylethyl-2-pyrazolin-5-one] | 168 to 170 °C
45 | CC(C)OC1=NNC(=O)C1=Cc1cccn1CCCCO [Example 38, 4-{[1-(4-Hydroxybutyl)pyrrol-2-yl]methylene}-3-isopropoxy-2-pyrazolin-5-one] | 138 to 140 °C
46 | O=C1NN=C(OC2CCCC2)C1=Cc1ccc[nH]1 [Example 39, 3-Cyclopentyloxy-4-[(pyrrol-2-yl)methylene]-2-pyrazolin-5-one] | 201 to 203 °C
47 | Cc1c[nH]c(C=C2C(=O)NN=C2OC(C)C)c1 [Example 41, 3-Isopropoxy-4-[(4-methylpyrrol-2-yl)methylene]-2-pyrazolin-5-one] | 215 to 217 °C
48 | Cc1c[nH]c(C=C2C(=O)NN=C2CCc2ccc(N)cc2)c1 [Example 42, 3-(4-Aminophenylethyl)-4-[(4-methylpyrrol-2-yl)methylene]-2-pyrazolin-5-one] | 178 to 180 °C
49 | CC(C)OC1=NNC(=O)C1=Cc1cccn1C [Example 43, 3-Isopropoxy-4-[(1-methylpyrrol-2-yl)methylene]-2-pyrazolin-5-one] | 199 to 201 °C
50 | Cc1ccc(C=C2C(=O)NN=C2OC(C)C)[nH]1 [Example 44, 3-Isopropoxy-4-[(5-methylpyrrol-2-yl)methylene]-2-pyrazolin-5-one] | 128 to 130 °C
